Assay results published in patent US5389634A, “Imidazole derivatives having angiotensin II receptor antagonistic activity” (Roussel-Uclaf, priority 1990, dated 1995).

Tests used:
angiotensin II receptor = target: T1, angiotensin II receptor (Rattus norvegicus, UniProt P25095); experiment: Test on the angiotensin II receptor (displacement of I^125 angiotensin II on rat liver membrane preparation); assay type: binding; settings: 25° C., 150 minutes, pH 7.4, read-out: IC50 (50% inhibiting concentration, displacement of specific radioactivity fixed on the receptor)
T1 construct: A fresh membrane preparation obtained from the liver of a rat was used; from tissue; host or cells: rat liver membranes
T1 sequence (P25095 1-359): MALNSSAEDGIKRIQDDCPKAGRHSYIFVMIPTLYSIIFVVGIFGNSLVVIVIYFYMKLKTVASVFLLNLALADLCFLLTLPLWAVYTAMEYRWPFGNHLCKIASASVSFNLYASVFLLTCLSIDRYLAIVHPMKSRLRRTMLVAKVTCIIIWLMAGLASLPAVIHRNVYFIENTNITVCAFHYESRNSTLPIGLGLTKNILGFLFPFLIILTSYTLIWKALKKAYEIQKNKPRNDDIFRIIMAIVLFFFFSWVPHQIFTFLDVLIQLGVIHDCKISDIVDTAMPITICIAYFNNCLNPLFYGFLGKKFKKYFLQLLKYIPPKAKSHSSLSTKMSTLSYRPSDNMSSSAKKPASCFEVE
Procedure: A fresh membrane preparation obtained from the liver of a rat was used and the tissue was ground up in a polytron in a Tris 50 mM buffer pH 7.4. The grinding was followed by 3 centrifugations at 30,000 g for 15 minutes and the deposits were taken up in between in the Tris buffer pH 7.4. The last deposits were suspended in an incubation buffer (Tris 20 mM, NaCl 135 mM, KCl 10 mM, glucose 5 mM, MgCl2 10 mM PMSF 0.3 mM, bacitracin 0.1 mM, BSA 0.2%) The aliquoted fractions of 2 ml were divided into hemolysis tubes and I^125 angiotensin II (25,000 DPM per tube) and the product to be studied were added. The product was first tested at 3×10^-5 M three times. When the tested product displaced by more than 50% the radioactivity linked specifically to the receptor, it was tested again according to a range of 7 concentrations to determine the concentration which inhibited by 50% the radioactivity linked specificaly to the receptor. In this way, the 50% inhibiting concentration was determined.
The non-specific bond was determined by addition of the product of Example 94 of European Patent No. 0,253,310, at 10^-5 M (three times). The medium was incubated at 25° C. for 150 minutes, put in a water bath at 0° C. for 5 minutes, filtered under vacuum, rinsed with Tris buffer pH 7.4 and the radioactivity was counted in the presence of scintillating Triton. The results were expressed directly as the 50% inhibiting concentration (IC50), that is as the concentration of studied product, expressed in nM, necessary to displace 50% of the specific radioactivity fixed on the receptor studied.

[1] = test system: angiotensin II on the isolated portal vein; experiment: Antagonistic activity of angiotensin II on the isolated portal vein; assay type: cell-based, male Wistar rats; settings: isolated rat portal vein, angiotensin II 3.10^-8 M, compound 15 minutes before stimulation, 37° C.; read-out: IC50 (concentration which produced a 50% inhibition of the response to angiotensin)
Procedure: The portal vein of male Wistar rats weighing about 350 g (IFFA Credo France) was removed after cervical dislocation and placed rapidly in a physiological solution (see below) at ambient temperature. A ring of about 1 mm was mounted in a bath having an isolated organ containing 20 ml of the following physiological solution (composition in mM: NaCl 118.3-KCl […]-MgSO4 1.2-KH2 PO4 1.2-NaHCO3 25-glucose 11.1-CaCl2 2.5). The medium was maintained at 37° C. and oxygenated with an O2 (95%), CO2 (5%) mixture. The initial pressure imposed was 1 g, the rings were left at rest for 60 to 90 minutes. To avoid spontaneous contractions, verapamil was added to the incubation bath (1.10^-6 M).
At the end of the rest period, angiotensin II (Ciba hypertensin) 3.10^-8 M was added to the incubation bath and left in contact with the preparation for 1 minute. This operation was repeated every 30 minutes with the tissue being washed 3 or 4 times between two stimulations by angiotensin. The compound to be studied was introduced into the bath 15 minutes before a new stimulation by angiotensin. From increasing concentrations of the molecule being applied, an IC50 (concentration which produced a 50% inhibition of the response to angiotensin) can be calculated, this being expressed in nanomoles.

IC50 (angiotensin II receptor) [nM]	IC50 [1] [nM]	SMILES
2270	3280	CCCCc1nc2cc3ccccc3cc2n1Cc1ccc(C(=O)O)cc1 [Example 10, 4-((2-butyl-1H-naphth(2,3-d)imidazol-1-yl)-methyl) benzoic acid]
2720		CCCCc1nc2ccncc2n1Cc1ccc(C(=O)O)cc1 [Example 20, 4-((2-butyl-3H-imidazo(4,5-c)pyridin-3-yl)-methyl) benzoic acid]
3460		CCCCc1nc2ccccc2n1Cc1ccc(C(=O)Nc2cccc3[nH]ccc23)cc1 [Example 6, 4-((2-butyl-1H-benzimidazol-1-yl)-methyl)-N-(1H-indol-4-yl) benzamide]
	830	CCCCc1nc2cccnc2n1Cc1ccc(C(=O)O)cc1 [Example 25]
3610		CCCCc1nc2cc(C)c(C)cc2n1Cc1ccc(C(=O)O)cc1 [Example 15, 4-((2-butyl-5,6-dimethyl-1H-benzimidazol-1-yl)-methyl) benzoic acid]
1440	3600	CCCCc1nc2ccccc2n1Cc1ccc(C(=O)O)cc1 [Example 5, 4-((2-butyl-1H-benzimidazol-1-yl)-methyl) benzoic acid]
789		CCCCc1nc2cscc2n1Cc1ccc(-c2ccccc2C(=O)O)cc1 [Example 34, 4'-((2-butyl-1H-thieno-(3,4-d)-imidazol-1-yl)-methyl)-(1,1'-biphenyl)-2-carboxylic acid]
89		CCCCc1nc2ncccc2n1Cc1ccc(-c2ccccc2C(=O)O)cc1 [Example 27, 4'-((2-butyl-1H-imidazo-(4,5-b)-pyridin-1-yl)-methyl)-(1,1'-biphenyl)-2-carboxylic acid]
2350	3400	CCCCc1nc2ccc(C(=O)O)cc2n1Cc1ccc(C(=O)O)cc1 [Example 2, 2-Butyl-1-((4-carboxyphenyl)-methyl)-1H-benzimidazol-6-carboxylic acid]
